Test results from patent US20260200946A1, “KRAS(G12V) INHIBITORS” (Ranok Therapeutics (Hangzhou) Co. Ltd., priority 2022, published 2026).

Columns and labels:
KRAS(G12V)/SOS1 = biological target: T1, KRAS(G12V)/SOS1 (Homo sapiens, UniProt P01116, G12V); assay: KRAS(G12V)/SOS1 homogeneous time-resolved fluorescence (HTRF) assay; format: binding; conditions: absence of GTP; 4° C., 3 hours; read-out: HTRF of KRASG12V-SOS1
T1 construct: purchased Cisbio 63ADK000CB18PEH
Experimental: Binding of test compounds to KRAS(G12V) target protein, which in turn blocks KRAS(G12V) interaction with the SOS1 protein, was measured in the absences of GTP by homogeneous time-resolved fluorescence using the KRAS-G12V/SOS1 Binding Assay Kit (Cisbio, 63ADK000CB18PEH), following the manufacturer's instructions, except as noted. 3-fold serial dilutions of each test compound were prepared ranging from 20 µM to 1.02 nM. The test compound was mixed and incubated with reaction components, incubated in a sealed plate at 4° C. for 3 hours and fluorescence was measured using a PerkinElmer Envision plate reader. The KRAS(G12V)-SOS1 IC50 values (the concentration of 50% of the maximal inhibition) were calculated using GraphPad Prism 8.0 software.

SW620 cells = assay: Cancer cell line proliferation (CellTiter-Glo), SW620; format: cell-based; conditions: Homo sapiens, SW-620, SW620 colorectal adenocarcinoma, homozygous G12V, 72 hr
Experimental: Cell lines were cultured essentially according to ATCC recommendations. SW620 and NCIH727 cells were plated in 384-well tissue culture plates at 1,000 cells/well and incubated at 37° C./5% CO2 for 72 hr in 40 μl of media. […] Each cell line was then treated with test compounds at various concentrations with a final concentration of 0.5% DMSO/well, and then incubated at 37° C./5% CO2 for 72 hr. 40 μl of CellTiter-Glo® Reagent (Promega Corporation, Madison, WI) was added to each well and processed according manufacturer's protocol. Results were analyzed and IC50 values were calculated in GraphPad 8.0 software.

NCIH727 cells = assay: Cancer cell line proliferation (CellTiter-Glo), NCI-H727; format: cell-based; conditions: Homo sapiens, 72 h, NCIH727 lung carcinoid, heterozygous G12V
Summary of the method: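 NCI-H727 cells (1,000/well) were grown 72 h at 37 °C/5% CO2, then exposed to compound at various concentrations (0.5% DMSO final) for a further 72 h. Viability was read by CellTiter-Glo luminescence, and IC50 values were calculated from the dose-response.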

T1 sequence (P01116 1-188 isoform P01116-2 G12V): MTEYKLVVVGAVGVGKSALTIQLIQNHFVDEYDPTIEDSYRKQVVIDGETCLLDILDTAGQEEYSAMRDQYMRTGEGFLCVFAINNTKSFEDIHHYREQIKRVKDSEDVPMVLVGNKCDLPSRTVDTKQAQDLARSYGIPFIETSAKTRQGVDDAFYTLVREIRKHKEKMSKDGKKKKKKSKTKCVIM

Compound | IC50 (KRAS(G12V)/SOS1) [µM] | EC50 (SW620 cells) [µM] | EC50 (NCIH727 cells) [µM]
C#Cc1c(F)ccc2cc(O)cc(-c3nc(OC)c4c(N5CC6CCC(C5)N6C(=O)NCC(F)(F)F)nc(OCC5(CN6CCC(F)CC6)CC5)nc4c3F)c12 [Example 26] | < 0.1 | > 1 | 0.1 to 1
C#Cc1c(F)ccc2cc(O)cc(-c3nc(OC)c4c(N5CC6CCC(C5)N6C(=O)NCC#N)nc(OCC5(CN6CC7CC7C6)CC5)nc4c3F)c12 (centres unmarked) [Example 104] | – | 0.1 to 1 | 0.1 to 1
C#Cc1c(F)ccc2cc(O)cc(-c3ncc4c(N5CC6CCC(C5)N6C(=O)NC#N)nc(OCC5(CN6CCC(F)CC6)CC5)nc4c3F)c12 [Example 29] | 0.1 to 1 | > 1 | > 1
C#Cc1c(F)ccc2cc(O)cc(-c3ncc4c(N5CC6CCC(C5)N6CC)nc(OCC5(CN6CCC(F)CC6)CC5)nc4c3F)c12 [Example 31] | 0.1 to 1 | > 1 | > 1
C#Cc1c(F)ccc2cc(O)cc(-c3ncc4c(N5CC6CCC(C5)N6C(=O)NC(C)C)nc(OCC5(CN6CCC(F)CC6)CC5)nc4c3F)c12 [Example 7] | < 0.1 | > 1 | > 1
C#Cc1c(F)ccc2cc(O)cc(-c3nc(OC)c4c(N5CC6CCC(C5)N6C(=O)NC(C)C#N)nc(OCC5(CN6CCC(F)CC6)CC5)nc4c3F)c12 (centres unmarked) [Example 38] | < 0.1 | 0.1 to 1 | 0.1 to 1
C#Cc1c(F)ccc2cc(O)cc(-c3nc(OC)c4c(N5CC6CCC(C5)N6C(=O)NCC#N)nc(OCC5(CN6CCC(F)CC6)CC5)nc4c3F)c12 [Example 37] | 0.1 to 1 | 0.1 to 1 | 0.1 to 1
C#Cc1c(F)ccc2cc(O)cc(-c3nc(OC)c4c(N5CC6CCC(C5)N6C(=O)NCC(F)(F)F)nc(OCC5(CN6CC7CC7C6)CC5)nc4c3F)c12 (centres unmarked) [Example 129] | – | 0.1 to 1 | < 0.1
C#Cc1c(F)ccc2cc(O)cc(-c3ncc4c(N5CC6CCC(C5)N6C(=O)OCC)nc(OCC5(CN6CCC(F)CC6)CC5)nc4c3F)c12 [Example 11] | 0.1 to 1 | 0.1 to 1 | 0.1 to 1
C#Cc1c(F)ccc2cc(O)cc(-c3ncc4c(N5CC6CCC(C5)N6C(=O)CC5CC5)nc(OCC5(CN6CCC(F)CC6)CC5)nc4c3F)c12 [Example 27] | 0.1 to 1 | > 1 | > 1
C#Cc1c(F)ccc2cc(O)cc(-c3nc(OC)c4c(N5CC6CCC(C5)N6C(=O)C5CC5)nc(OCC5(CN6CCC(F)CC6)CC5)nc4c3F)c12 [Example 50] | < 0.1 | > 1 | > 1
C#Cc1c(F)ccc2cc(O)cc(-c3ncc4c(N5CC6CCC(C5)N6C(=O)N(C)C)nc(OCC5(CN6CCC(F)CC6)CC5)nc4c3F)c12 [Example 8] | < 0.1 | > 1 | > 1
C#Cc1c(F)ccc2cc(O)cc(-c3ncc4c(N5CC6CCC(C5)N6C(=O)NC(=O)C(C)(C)C)nc(OCC5(CN6CCC(F)CC6)CC5)nc4c3F)c12 [Example 17] | 0.1 to 1 | > 1 | > 1
C#Cc1c(F)ccc2cc(O)cc(-c3ncc4c(N5CC6CCC(C5)N6S(=O)(=O)CC#N)nc(OCC5(CN6CCC(F)CC6)CC5)nc4c3F)c12 [Example 33] | 0.1 to 1 | > 1 | > 1
C#Cc1c(F)ccc2cc(O)cc(-c3nc(OC)c4c(N5CC6CCC(C5)N6C(=O)C5(C(F)(F)F)CC5)nc(OCC5(CN6CCC(F)CC6)CC5)nc4c3F)c12 [Example 45] | < 0.1 | > 1 | > 1
C#Cc1c(F)ccc2cc(O)cc(-c3ncc4c(N5CC6CCC(C5)N6C(=O)N5CCC5)nc(OCC5(CN6CCC(F)CC6)CC5)nc4c3F)c12 [Example 18] | 0.1 to 1 | > 1 | > 1
C#CCCC(=O)N1C2CCC1CN(c1nc(OCC3(CN4CCC(F)CC4)CC3)nc3c(F)c(-c4cc(O)cc5ccc(F)c(C#C)c45)ncc13)C2 [Example 47] | < 0.1 | > 1 | > 1
C#Cc1c(F)ccc2cc(O)cc(-c3ncc4c(N5CC6CCC(C5)N6C(=O)OC(C)(C)C)nc(OCC5(CN6CCC(F)CC6)CC5)nc4c3F)c12 [Example 40] | 0.1 to 1 | > 1 | > 1
C#Cc1c(F)ccc2cc(O)cc(-c3ncc4c(N5CC6CCC(C5)N6C(=O)NC5CCCC5)nc(OCC5(CN6CCC(F)CC6)CC5)nc4c3F)c12 [Example 48] | < 0.1 | > 1 | > 1

Compound | IC50 (KRAS(G12V)/SOS1) [µM] | EC50 (SW620 cells) [µM] | EC50 (NCIH727 cells) [µM]
C#Cc1c(F)ccc2cc(O)cc(-c3nc(OC)c4c(N5CC6CCC(C5)N6C(=O)CCOC(F)(F)F)nc(OCC5(CN6CC7CC7C6)CC5)nc4c3F)c12 (centres unmarked) [Example 147] | – | 0.1 to 1 | 0.1 to 1
C#Cc1c(F)ccc2cc(O)cc(-c3ncc4c(N5CC6CCC(C5)N6C(=O)NC(C)(C)C)nc(OCC5(CN6CCC(F)CC6)CC5)nc4c3F)c12 [Example 6] | < 0.1 | 0.1 to 1 | 0.1 to 1
C#Cc1c(F)ccc2cc(O)cc(-c3nc(OC)c4c(N5CC6CCC(C5)N6C(=O)C(C#N)CC#N)nc(OCC5(CN6CC7CC7C6)CC5)nc4c3F)c12 (centres unmarked) [Example 109] | – | 0.1 to 1 | 0.1 to 1
C#Cc1c(F)ccc2cc(O)cc(-c3nc(OC)c4c(N5CC6CCC(C5)N6C(=O)NC5CC5)nc(OCC5(CN6CCC(F)CC6)CC5)nc4c3F)c12 [Example 46] | < 0.1 | 0.1 to 1 | 0.1 to 1
C#Cc1c(F)ccc2cc(O)cc(-c3nc(OC)c4c(N5CC6CCC(C5)N6C(=O)CCC#N)nc(OCC5(CN6CC7CC7C6)CC5)nc4c3F)c12 (centres unmarked) [Example 99] | – | 0.1 to 1 | < 0.1
C#Cc1c(F)ccc2cc(O)cc(-c3nc(OC)c4c(N5CC6CCC(C5)N6C(=O)C5CC5(F)F)nc(OCC5(CN6CCC(F)CC6)CC5)nc4c3F)c12 (centres unmarked) [Example 44] | < 0.1 | 0.1 to 1 | 0.1 to 1
C#Cc1c(F)ccc2cc(O)cc(-c3ncc4c(N5CC6CCC(C5)N6C(=O)c5nnn[nH]5)nc(OCC5(CN6CCC(F)CC6)CC5)nc4c3F)c12 [Example 28] | 0.1 to 1 | > 1 | > 1
C#Cc1c(F)ccc2cc(O)cc(-c3nc(OC)c4c(N5CC6CCC(C5)N6C(=O)C(C)C(F)(F)F)nc(OCC5(CN6CCC(F)CC6)CC5)nc4c3F)c12 (centres unmarked) [Example 52] | < 0.1 | > 1 | > 1
C#Cc1c(F)ccc2cc(O)cc(-c3nc(OC)c4c(N5CC6CCC(C5)N6C(=O)NC(C)(C)C)nc(OCC5(CN6CCC(F)CC6)CC5)nc4c3F)c12 [Example 21] | < 0.1 | 0.1 to 1 | 0.1 to 1
C#Cc1c(F)ccc2cc(O)cc(-c3ncc4c(N5CC6CCC(C5)N6C(=O)OC(C)C)nc(OCC5(CN6CCC(F)CC6)CC5)nc4c3F)c12 [Example 42] | 0.1 to 1 | > 1 | > 1
C#Cc1c(F)ccc2cc(O)cc(-c3ncc4c(N5CC6CCC(C5)N6C(=O)CC#N)nc(OCC5(CN6CCC(F)CC6)CC5)nc4c3F)c12 [Example 2] | < 0.1 | 0.1 to 1 | 0.1 to 1
C#Cc1c(F)ccc2cc(O)cc(-c3ncc4c(N5CC6CCC(C5)N6S(=O)(=O)NC(C)C)nc(OCC5(CN6CCC(F)CC6)CC5)nc4c3F)c12 [Example 25] | 0.1 to 1 | > 1 | > 1
C#Cc1c(F)ccc2cc(O)cc(-c3ncc4c(N5CC6CCC(C5)N6C(=O)OCC(C)C)nc(OCC5(CN6CCC(F)CC6)CC5)nc4c3F)c12 [Example 16] | 0.1 to 1 | > 1 | > 1
C#Cc1c(F)ccc2cc(O)cc(-c3ncc4c(N5CC6CCC(C5)N6C(=O)NC(C)C(F)(F)F)nc(OCC5(CN6CCC(F)CC6)CC5)nc4c3F)c12 (centres unmarked) [Example 32] | 0.1 to 1 | > 1 | > 1
C#Cc1c(F)ccc2cc(O)cc(-c3ncc4c(N5CC6CCC(C5)N6C(=O)C(C)(C)C)nc(OCC5(CN6CCC(F)CC6)CC5)nc4c3F)c12 [Example 43] | 0.1 to 1 | > 1 | > 1
C#Cc1c(F)ccc2cc(O)cc(-c3ncc4c(N5CC6CCC(C5)N6C(=O)CC(C)(C)C)nc(OCC5(CN6CCC(F)CC6)CC5)nc4c3F)c12 [Example 5] | 0.1 to 1 | > 1 | > 1
C#Cc1c(F)ccc2cc(O)cc(-c3ncc4c(N5CC6CCC(C5)N6C(=O)NC5(C#N)CC5)nc(OCC5(CN6CCC(F)CC6)CC5)nc4c3F)c12 [Example 35] | 0.1 to 1 | 0.1 to 1 | 0.1 to 1
C#Cc1c(F)ccc2cc(O)cc(-c3nc(OC)c4c(N5CC6CCC(C5)N6C(=O)NC(C)C#N)nc(OCC5(CN6CC7CC7C6)CC5)nc4c3F)c12 (centres unmarked) [Example 105] | – | 0.1 to 1 | < 0.1
C#Cc1c(F)ccc2cc(O)cc(-c3nc(OC)c4c(N5CC6CCC(C5)N6C(=O)CC(C)C#N)nc(OCC5(CN6CC7CC7C6)CC5)nc4c3F)c12 (centres unmarked) [Example 140] | – | 0.1 to 1 | < 0.1
